Measurements from patent US10730870B2, “Compounds and methods for the enhanced degradation of targeted proteins” (Arvinas, Inc., priority 2015, dated 2020).

Molecular target: VHL (Homo sapiens (Human), UniProt P40337)
Test: VHL fluorescence polarization (FP) competition assay
Assay type: binding
Details: 1% in DMSO

SMILES	IC50	VHL FP Assay IC50
Cc1ncsc1-c1ccc(CNC(=O)[C@@H]2C[C@@H](O)CN2C(=O)[C@H](C(C)C)N2CCCC2=O)cc1 [Example 98, (2S,4R)-4-hydroxy-1-((S)-3-methyl-2-(2-oxopyrrolidin-1-yl)butanoyl)-N-(4-(4-methylthiazol-5-yl)benzyl)pyrrolidine-2-carboxamide]	4.15 µM	–
Cc1ncsc1-c1ccc(CNC(=O)[C@@H]2C[C@@H](O)CN2C(=O)[C@H](C(C)C)N2Cc3ncccc3C2=O)cc1 [Example 99, (2S,4R)-4-hydroxy-1-((S)-3-methyl-2-(5-oxo-5H-pyrrolo[3,4-b]pyridin-6(7H)-yl)butanoyl)-N-(4-(4-methylthiazol-5-yl)benzyl)pyrrolidine-2-carboxamide]	0.418 µM	–
CC(C)[C@@H](C(=O)N1C[C@H](O)C[C@H]1C(=O)NCc1ccc(-c2cnn[nH]2)cc1)N1Cc2ccccc2C1=O [Example 100, (2S,4R)—N-(4-(1H-1,2,3-triazol-5-yl)benzyl)-4-hydroxy-1-((S)-3-methyl-2-(1-oxoisoindolin-2-yl)butanoyl)pyrrolidine-2-carboxamide]	9.77 µM	–
CC(C)[C@@H](C(=O)N1C[C@H](O)C[C@H]1C(=O)NCc1ccc(-c2ncon2)cc1)N1Cc2ccccc2C1=O [Example 101, (2S,4R)—N-(4-(1,2,4-oxadiazol-3-yl)benzyl)-4-hydroxy-1-((S)-3-methyl-2-(1-oxoisoindolin-2-yl)butanoyl)pyrrolidine-2-carboxamide]	4.39 µM	–
CC(C)[C@@H](C(=O)N1C[C@H](O)C[C@H]1C(=O)NCc1ccc(-c2scnc2C(F)(F)F)cc1)N1Cc2ccccc2C1=O [Example 102, (2S,4R)-4-hydroxy-1-((S)-3-methyl-2-(1-oxoisoindolin-2-yl)butanoyl)-N-(4-(4-(trifluoromethyl)thiazol-5-yl)benzyl)pyrrolidine-2-carboxamide]	7.75 µM	–
Cc1ncn(C)c1-c1ccc(CNC(=O)[C@@H]2C[C@@H](O)CN2C(=O)[C@H](C(C)C)N2Cc3ccccc3C2=O)cc1 [Example 103, (2S,4R)—N-(4-(1,4-dimethyl-1H-imidazol-5-yl)benzyl)-4-hydroxy-1-((S)-3-methyl-2-(1-oxoisoindolin-2-yl)butanoyl)pyrrolidine-2-carboxamide]	33.8 µM	–
CC[C@H](C)[C@H](NCCc1ccccc1)C(=O)N1C[C@H](O)C[C@H]1C(=O)NCc1ccc(-c2scnc2C)cc1 [Example 104, (2S,4R)-4-hydroxy-1-((2S,3S)-3-methyl-2-(phenethylamino)pentanoyl)-N-(4-(4-methylthiazol-5-yl)benzyl)pyrrolidine-2-carboxamide]	> 10 µM	–
CC[C@H](C)[C@H](NC(C)c1ccccc1)C(=O)N1C[C@H](O)C[C@H]1C(=O)NCc1ccc(-c2scnc2C)cc1 (stereo partly drawn) [Example 105, (2S,4R)-4-hydroxy-1-((2S,3S)-3-methyl-2-(1-phenylethylamino)pentanoyl)-N-(4-(4-methylthiazol-5-yl)benzyl)pyrrolidine-2-carboxamide]	37.7 µM	–
Cc1c(-c2ccc(CNC(=O)[C@@H]3C[C@@H](O)CN3C(=O)[C@H](C(C)C)N3Cc4ccccc4C3=O)cc2)ncn1C [Example 106, (2S,4R)—N-(4-(1,5-dimethyl-1H-imidazol-4-yl)benzyl)-4-hydroxy-1-((S)-3-methyl-2-(1-oxoisoindolin-2-yl)butanoyl)pyrrolidine-2-carboxamide]	14.2 µM	–
Cc1ncsc1-c1ccc(CNC(=O)[C@@H]2C[C@@H](O)CN2c2cccc(Oc3ccccc3)c2)cc1 [Example 109, (2S,4R)-4-hydroxy-N-(4-(4-methylthiazol-5-yl)benzyl)-1-(3-phenoxyphenyl)pyrrolidine-2-carboxamide]	6.67 µM	–
COC1=CC(=O)N([C@H](C(=O)N2C[C@H](O)C[C@H]2C(=O)NCc2ccc(-c3scnc3C)cc2)C(C)C)C1 [Example 111, (2S,4R)-4-hydroxy-1-((S)-2-(4-methoxy-2-oxo-2,5-dihydro-1H-pyrrol-1-yl)-3-methylbutanoyl)-N-(4-(4-methylthiazol-5-yl)benzyl)pyrrolidine-2-carboxamide]	0.859 µM	–
Cc1ncsc1-c1ccc(CN/C(=N/C#N)[C@@H]2C[C@@H](O)CN2C(=O)[C@H](C(C)C)N2Cc3ccccc3C2=O)cc1 [Example 112, (2S,4R,E)-N′-cyano-4-hydroxy-1-((S)-3-methyl-2-(1-oxoisoindolin-2-yl)butanoyl)-N-(4-(4-methylthiazol-5-yl)benzyl)pyrrolidine-2-carboximidamide]	> 100 µM	–
CC(C)[C@@H](C(=O)N1C[C@H](O)C[C@H]1C(=O)NCc1ccc(C2CC2)cc1)N1Cc2ccccc2C1=O [Example 113, (2S,4R)—N-(4-cyclopropylbenzyl)-4-hydroxy-1-((S)-3-methyl-2-(1-oxoisoindolin-2-yl)butanoyl)pyrrolidine-2-carboxamide]	> 10 µM	–
CC(C)[C@@H](C(=O)N1C[C@H](O)C[C@H]1C(=O)NCc1ccc(C2CCC2)cc1)N1Cc2ccccc2C1=O [Example 114, (2S,4R)—N-(4-cyclobutylbenzyl)-4-hydroxy-1-((S)-3-methyl-2-(1-oxoisoindolin-2-yl)butanoyl)pyrrolidine-2-carboxamide]	47.3 µM	–
CC(C)[C@@H](C(=O)N1C[C@H](O)C[C@H]1C(=O)NCc1ccc(C2CCCC2)cc1)N1Cc2ccccc2C1=O [Example 115, (2S,4R)—N-(4-cyclopentylbenzyl)-4-hydroxy-1-((S)-3-methyl-2-(1-oxoisoindolin-2-yl)butanoyl)pyrrolidine-2-carboxamide]	15.8 µM	–
CC(C)[C@@H](C(=O)N1C[C@H](O)C[C@H]1C(=O)NCc1ccc(C2=CCCC2)cc1)N1Cc2ccccc2C1=O [Example 116, (2S,4R)—N-(4-cyclopentenylbenzyl)-4-hydroxy-1-((S)-3-methyl-2-(1-oxoisoindolin-2-yl)butanoyl)pyrrolidine-2-carboxamide]	3.9 µM	–
CC(C)[C@@H](C(=O)N1C[C@H](O)C[C@H]1C(=O)NCc1ccc(C2CCCCC2)cc1)N1Cc2ccccc2C1=O [Example 117, (2S,4R)—N-(4-cyclohexylbenzyl)-4-hydroxy-1-((S)-3-methyl-2-(1-oxoisoindolin-2-yl)butanoyl)pyrrolidine-2-carboxamide]	15.5 µM	–
CC(C)[C@@H](C(=O)N1C[C@H](O)C[C@H]1C(=O)NCc1ccc(C2CCOCC2)cc1)N1Cc2ccccc2C1=O [Example 118, (2S,4R)-4-hydroxy-1-((S)-3-methyl-2-(1-oxoisoindolin-2-yl)butanoyl)-N-(4-(tetrahydro-2H-pyran-4-yl)benzyl)pyrrolidine-2-carboxamide]	330 µM	–
Cc1ncsc1-c1ccc(CNC(=O)[C@@H]2C[C@@H](S)CN2C(=O)[C@H](C(C)C)N2Cc3ccccc3C2=O)cc1 [Example 119, (2S,4R)-4-mercapto-1-((S)-3-methyl-2-(1-oxoisoindolin-2-yl)butanoyl)-N-(4-(4-methylthiazol-5-yl)benzyl)pyrrolidine-2-carboxamide]	–	Not Active
CO/N=C(/NCc1ccc(-c2scnc2C)cc1)[C@@H]1C[C@@H](O)CN1C(=O)[C@H](C(C)C)N1Cc2ccccc2C1=O [Example 120, (2S,4R,E)-4-hydroxy-N′-methoxy-1-((S)-3-methyl-2-(1-oxoisoindolin-2-yl)butanoyl)-N-(4-(4-methylthiazol-5-yl)benzyl)pyrrolidine-2-carboximidamide]	15.5 µM	–
